{"source": "ChEMBL document CHEMBL4020785", "about": "“Switching subtype-selectivity: Fragment replacement strategy affords novel class of peroxisome proliferator-activated receptor α/δ (PPARα/δ) dual agonists” (Bioorg Med Chem Lett, 2017)", "key": {"[1]": {"target": "T1, Peroxisome proliferator-activated receptor alpha (Homo sapiens, UniProt Q07869)", "T1 sequence (Q07869 whole entry)": "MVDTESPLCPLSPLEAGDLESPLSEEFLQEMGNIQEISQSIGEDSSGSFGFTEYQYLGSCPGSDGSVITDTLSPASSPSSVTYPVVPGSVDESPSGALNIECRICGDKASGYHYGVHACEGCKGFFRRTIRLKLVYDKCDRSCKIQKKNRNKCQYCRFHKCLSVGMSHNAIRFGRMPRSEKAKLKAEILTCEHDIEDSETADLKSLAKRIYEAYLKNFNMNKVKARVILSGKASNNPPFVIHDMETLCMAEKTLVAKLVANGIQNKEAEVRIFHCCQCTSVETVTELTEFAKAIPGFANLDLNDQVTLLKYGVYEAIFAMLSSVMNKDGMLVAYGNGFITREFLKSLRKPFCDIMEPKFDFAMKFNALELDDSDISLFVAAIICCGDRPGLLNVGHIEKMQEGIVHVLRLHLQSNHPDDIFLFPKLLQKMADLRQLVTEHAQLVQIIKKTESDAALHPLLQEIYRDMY", "assay": "Agonist activity at GAL4N fused human PPARalpha LBD expressed in HEK293 cells co-expressing TK-MH100x4-Luc after 24 hrs by luciferase reporter gene assay", "type": "cell-based"}, "[2]": {"target": "T2, Peroxisome proliferator-activated receptor alpha (Homo sapiens) (UniProt Q07869)", "T2 sequence (whole entry)": "T1 sequence (Q07869 whole entry)", "assay": "Agonist activity at GAL4N fused human PPARalpha LBD expressed in HEK293 cells co-expressing TK-MH100x4-Luc after 24 hrs by luciferase reporter gene assay relative to GW7647", "type": "cell-based"}, "[3]": {"target": "T3, Peroxisome proliferator-activated receptor delta (Homo sapiens, UniProt Q03181)", "T3 sequence (Q03181 whole entry)": "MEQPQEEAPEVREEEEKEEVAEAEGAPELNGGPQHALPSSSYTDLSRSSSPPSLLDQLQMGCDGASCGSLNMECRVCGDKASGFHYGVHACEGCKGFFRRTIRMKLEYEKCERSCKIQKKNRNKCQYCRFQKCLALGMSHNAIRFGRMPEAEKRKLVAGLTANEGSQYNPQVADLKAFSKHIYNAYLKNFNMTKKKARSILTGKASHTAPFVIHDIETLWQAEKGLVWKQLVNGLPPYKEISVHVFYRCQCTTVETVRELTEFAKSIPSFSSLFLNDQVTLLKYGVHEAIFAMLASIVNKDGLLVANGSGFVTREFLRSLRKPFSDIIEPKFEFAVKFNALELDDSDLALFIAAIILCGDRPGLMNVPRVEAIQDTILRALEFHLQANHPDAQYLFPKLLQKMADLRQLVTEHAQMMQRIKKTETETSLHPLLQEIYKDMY", "assay": "Agonist activity at GAL4N fused human PPARdelta LBD expressed in HEK293 cells co-expressing TK-MH100x4-Luc after 24 hrs by luciferase reporter gene assay", "type": "cell-based"}, "[4]": {"target": "T4, Peroxisome proliferator-activated receptor delta (Homo sapiens) (UniProt Q03181)", "T4 sequence (whole entry)": "T3 sequence (Q03181 whole entry)", "assay": "Agonist activity at GAL4N fused human PPARdelta LBD expressed in HEK293 cells co-expressing TK-MH100x4-Luc after 24 hrs by luciferase reporter gene assay relative to GW501516", "type": "cell-based"}, "[5]": {"target": "T5, Peroxisome proliferator-activated receptor gamma (Homo sapiens) (UniProt P37231)", "T5 sequence (whole entry)": "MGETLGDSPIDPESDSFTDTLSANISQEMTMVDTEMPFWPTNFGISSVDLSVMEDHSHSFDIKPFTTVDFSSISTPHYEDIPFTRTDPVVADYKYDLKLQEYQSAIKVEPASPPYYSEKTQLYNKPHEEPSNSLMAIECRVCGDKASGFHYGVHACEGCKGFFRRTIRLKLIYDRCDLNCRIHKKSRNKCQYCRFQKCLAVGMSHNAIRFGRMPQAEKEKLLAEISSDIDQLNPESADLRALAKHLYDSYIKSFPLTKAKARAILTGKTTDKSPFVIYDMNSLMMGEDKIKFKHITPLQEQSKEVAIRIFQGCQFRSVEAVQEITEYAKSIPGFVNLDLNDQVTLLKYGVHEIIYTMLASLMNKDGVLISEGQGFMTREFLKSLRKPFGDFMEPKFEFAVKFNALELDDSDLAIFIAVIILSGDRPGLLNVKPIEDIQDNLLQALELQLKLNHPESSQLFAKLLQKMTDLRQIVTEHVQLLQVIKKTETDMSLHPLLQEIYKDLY", "assay": "Agonist activity at GAL4N fused human PPARgamma LBD expressed in HEK293 cells co-expressing TK-MH100x4-Luc at less than 30 uM after 24 hrs by luciferase reporter gene assay", "type": "cell-based"}, "[6]": {"target": "T2, Peroxisome proliferator-activated receptor alpha (Homo sapiens)", "assay": "Agonist activity at GAL4N fused human PPARalpha LBD expressed in HEK293 cells co-expressing TK-MH100x4-Luc at less than 30 uM after 24 hrs by luciferase reporter gene assay", "type": "cell-based"}, "[7]": {"target": "T4, Peroxisome proliferator-activated receptor delta (Homo sapiens)", "assay": "Agonist activity at GAL4N fused human PPARdelta LBD expressed in HEK293 cells co-expressing TK-MH100x4-Luc at less than 30 uM after 24 hrs by luciferase reporter gene assay", "type": "cell-based"}, "[8]": {"target": "T6, Peroxisome proliferator-activated receptor gamma (Homo sapiens, UniProt P37231)", "T6 sequence (P37231 whole entry)": "T5 sequence (whole entry)", "assay": "Agonist activity at GAL4N fused human PPARgamma LBD expressed in HEK293 cells co-expressing TK-MH100x4-Luc after 24 hrs by luciferase reporter gene assay", "type": "cell-based"}, "[9]": {"target": "T5, Peroxisome proliferator-activated receptor gamma (Homo sapiens)", "assay": "Agonist activity at GAL4N fused human PPARgamma LBD expressed in HEK293 cells co-expressing TK-MH100x4-Luc after 24 hrs by luciferase reporter gene assay relative to rosiglitazone", "type": "cell-based"}, "[10]": {"target": "T7, Peroxisome proliferator-activated receptor alpha (Mus musculus, UniProt P23204)", "T7 sequence (P23204 whole entry)": "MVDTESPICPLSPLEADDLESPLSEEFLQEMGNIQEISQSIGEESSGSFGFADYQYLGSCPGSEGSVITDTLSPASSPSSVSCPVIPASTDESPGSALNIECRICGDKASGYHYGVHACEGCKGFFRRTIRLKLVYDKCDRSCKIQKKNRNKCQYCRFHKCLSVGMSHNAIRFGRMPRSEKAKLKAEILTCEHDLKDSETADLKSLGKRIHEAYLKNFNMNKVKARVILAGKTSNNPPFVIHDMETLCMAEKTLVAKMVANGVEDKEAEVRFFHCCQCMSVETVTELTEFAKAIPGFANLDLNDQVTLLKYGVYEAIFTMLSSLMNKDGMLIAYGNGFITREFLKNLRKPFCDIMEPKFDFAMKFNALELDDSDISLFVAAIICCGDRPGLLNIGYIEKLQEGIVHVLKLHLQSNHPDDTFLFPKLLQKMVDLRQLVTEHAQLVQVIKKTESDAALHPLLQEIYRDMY", "assay": "Agonist activity at 3' GAL4 DNA binding domain fused mouse PPARalpha LBD expressed in U-2 OS cells after 40 hrs by luciferase reporter gene assay", "type": "cell-based"}, "[11]": {"target": "T4, Peroxisome proliferator-activated receptor delta (Homo sapiens)", "assay": "Agonist activity at GAL4N fused human PPARdelta LBD expressed in HEK293 cells co-expressing TK-MH100x4-Luc at 50 uM after 24 hrs by luciferase reporter gene assay relative to control", "type": "cell-based"}, "[12]": {"target": "T1, Peroxisome proliferator-activated receptor alpha"}}, "note": "Calls of active or inactive are those of the source. The rule behind the calls is not given here.", "data": [{"smiles": "CC(=O)NC(C)c1nc(-c2ccc(OCCN3c4ccccc4Oc4ccccc43)cc2)no1", "note": "(stereo unspecified)", "values": [{"measurement": "EC50", "setting": "[1]", "result": 470, "unit": "nM"}, {"measurement": "Efficacy", "setting": "[2]", "result": "7 to 17", "unit": "%"}, {"measurement": "EC50", "setting": "[3]", "result": 450, "unit": "nM"}, {"measurement": "Efficacy", "setting": "[4]", "result": "2 to 9", "unit": "%"}, {"measurement": "Activity", "setting": "[5]", "result": "inactive"}]}, {"smiles": "CC(=O)NC(C)c1nc(-c2ccc(OCCCOc3ccc(Oc4ccccc4)cc3)cc2)no1", "note": "(stereo unspecified)", "values": [{"measurement": "EC50", "setting": "[1]", "result": 240, "unit": "nM"}, {"measurement": "Efficacy", "setting": "[2]", "result": "17 to 27", "unit": "%"}, {"measurement": "EC50", "setting": "[3]", "result": 320, "unit": "nM"}, {"measurement": "Efficacy", "setting": "[4]", "result": "2 to 11", "unit": "%"}, {"measurement": "Activity", "setting": "[5]", "result": "inactive"}]}, {"smiles": "CC(=O)N[C@H](C)c1nc(-c2ccc(OCCc3ccc(OS(C)(=O)=O)cc3)cc2)no1", "values": [{"measurement": "Activity", "setting": "[5]", "result": "inactive"}, {"measurement": "Activity", "setting": "[6]", "result": "inactive"}, {"measurement": "Activity", "setting": "[7]", "result": "inactive"}]}, {"smiles": "CCO[C@@H](Cc1ccc(OCCc2ccc(OS(C)(=O)=O)cc2)cc1)C(=O)O", "note": "[TESAGLITAZAR]", "values": [{"measurement": "EC50", "setting": "[1]", "result": 3800, "unit": "nM"}, {"measurement": "Efficacy", "setting": "[2]", "result": "122 to 186", "unit": "%"}, {"measurement": "EC50", "setting": "[8]", "result": 360, "unit": "nM"}, {"measurement": "Efficacy", "setting": "[9]", "result": "119 to 130", "unit": "%"}, {"measurement": "EC50", "setting": "[10]", "result": 1700, "unit": "nM"}, {"measurement": "Efficacy", "setting": "[11]", "result": 38, "unit": "%"}]}, {"smiles": "CC(=O)NC(C)c1nc(-c2ccc(OCC=C(c3ccc(Br)cc3)c3ccc(Br)cc3)cc2)no1", "note": "(stereo unspecified)", "values": [{"measurement": "EC50", "setting": "[1]", "result": 880, "unit": "nM"}, {"measurement": "Efficacy", "setting": "[2]", "result": "3 to 15", "unit": "%"}, {"measurement": "EC50", "setting": "[3]", "result": 970, "unit": "nM"}, {"measurement": "Efficacy", "setting": "[4]", "result": "5 to 14", "unit": "%"}, {"measurement": "Activity", "setting": "[5]", "result": "inactive"}]}, {"smiles": "CC(=O)NC(C)c1nc(-c2ccc(OCCc3ccc(OS(C)(=O)=O)cc3)cc2)no1", "note": "(stereo unspecified)", "values": [{"measurement": "EC50", "setting": "[1]", "result": 1200, "unit": "nM"}, {"measurement": "Efficacy", "setting": "[2]", "result": "13 to 37", "unit": "%"}, {"measurement": "EC50", "setting": "[3]", "result": 1600, "unit": "nM"}, {"measurement": "Efficacy", "setting": "[4]", "result": "7 to 18", "unit": "%"}, {"measurement": "Activity", "setting": "[5]", "result": "inactive"}]}, {"smiles": "CCO[C@@H](Cc1ccc(OCCN2c3ccccc3Oc3ccccc32)cc1)C(=O)O", "note": "[RAGAGLITAZAR]", "values": [{"measurement": "EC50", "setting": "[12]", "result": 2800, "unit": "nM"}]}, {"smiles": "CC(=O)N[C@@H](C)c1nc(-c2ccc(OCCc3ccc(OS(C)(=O)=O)cc3)cc2)no1", "values": [{"measurement": "EC50", "setting": "[1]", "result": 450, "unit": "nM"}, {"measurement": "Efficacy", "setting": "[2]", "result": "13 to 33", "unit": "%"}, {"measurement": "EC50", "setting": "[3]", "result": 990, "unit": "nM"}, {"measurement": "Efficacy", "setting": "[4]", "result": "4 to 19", "unit": "%"}, {"measurement": "Activity", "setting": "[5]", "result": "inactive"}]}, {"smiles": "CCOC(Cc1ccc(Oc2ccc(OCc3ccccc3)cc2)cc1)C(=O)O", "note": "(stereo unspecified)", "values": [{"measurement": "EC50", "setting": "[1]", "result": 5400, "unit": "nM"}, {"measurement": "Efficacy", "setting": "[2]", "result": "87 to 129", "unit": "%"}, {"measurement": "EC50", "setting": "[8]", "result": 18000, "unit": "nM"}, {"measurement": "Efficacy", "setting": "[9]", "result": "39 to 51", "unit": "%"}, {"measurement": "EC50", "setting": "[3]", "result": 31000, "unit": "nM"}, {"measurement": "Efficacy", "setting": "[4]", "result": "16 to 45", "unit": "%"}]}]}
